Test results reported in patent US20090036464A1, “Treatment Of Posterior Capsule Opacification” (priority 2004, published 2009).

Tests used:
[1] = tested on: primary human lens epithelial cells on the posterior capsule; experiment: pigmentation of lens cells during growth inhibition assays; type: cell-based; details: sub-lethal dose (3 μM), control cells remained clear, FIG. 8, 9
Description: Phase micrographs of cultured human lens cells on central anterior (upper) and posterior capsule (lower) respectively. The cells were maintained in serum-free or supplemented (3 μM Rimcazole) media for one week. The images were converted to grayscale with Adobe photoshop software.
Formation of pigment granules in human epithelial cells. A. Different stages of pigment granule formation (I-IV) as defined in MNT-1 melanoma cells by Seiji et al. 1963. B. Cross section of human lens epithelial cells grown in (a) control medium and (b) the presence of 3 μM BD1047.
(§1) The bags were maintained in Eagle's minimum essential medium (EMEM) or EMEM supplemented with either 3 μM Rimcazole dihydrochloride (rimcazole), 10 μm(+)-SKF 10047 hydrochloride (SKF), and 3 μM or 10 μM BD1047 dihydrochloride (BD1047) (all supplied by TOCRIS) and incubate at 35° C. in a 5% CO2 atmosphere. The medium was replaced every 2 days and ongoing observations and analyses were performed as above.
This pigmentation was also present in cells similarly tested on the rhexis (anterior capsule) removed during preparation of the capsular bag (FIG. 8) and in the FHL-124 lens cell line (not shown). […]

[2] = tested on: human lens cell line FHL124; experiment: FHL124 cell growth patch assay; type: cell-based; details: for growth of FHL124 cells: 4 days
Description: The effect of sigma ligands on human lens cell growth in FHL124 cell line maintained in serum-free media (A) or EMEM supplemented with 5% FCS (B). […] The cells were cultured for 4 days with experimental conditions. Experiments were repeated on 4 occasions. Data are expressed as Mean±S.E.M., the star represents significant difference from untreated control with rimcazole, and box represents significant difference from untreated control with (±)SKF 10047 (test p<0.05).
The effect of sigma-1 ligands on human lens cell growth in FHL 124 cell line maintained in serum-free media. A represents the data of patch area measurement. B represents the dye extraction from each stained patch, ie. cell number. The cells were cultured for 4 days with experimental conditions. Experiments were repeated on 4 occasions. Data are expressed as Mean±S.E.M, the star represents significant difference from untreated control with rimcazole, and ▪ represents significant difference from untreated control with (±)SKF10047 (test p<0.05).
The growth of the spontaneously immortal human lens cell line FHL124 was investigated using a patch assay. Cells grown from a single patch derived from a coverslip and stained with dye to estimate the cell number. […] (FIG. 6). […] Attenuation of rimcazole and BD-1047-mediated growth inhibition by a highly specific sigma-1 agonist confirms that growth inhibition is at least partly mediated through antagonism of sigma-1 sites.

[3] = tested on: human lens epithelial cells on the posterior capsule; experiment: in vitro capsular bag growth assay (cell coverage of the posterior capsule); type: cell-based; details: for growth of human lens cells on the posterior capsule: 3 μm, FIG. 2, FIG. 3
Description: Rate of cell coverage of the posterior capsule beyond the rhexis; 100% represents confluency. Experiments were repeated on 4 occasions. The means and standard errors are display ed.
(§2) Rate of cell coverage of the posterior capsule beyond the rhexis; 100% represents confluency. Experiments were repeated on 4 occasions.
The model previously described by Liu et al (1996) was used. A sham cataract operation was performed on human donor eyes. The resultant capsular bag was then dissected free of the zonules and secured on a sterile 35 mm PMMA petri dish. Eight entomological pins (D1: Watkins and Doncaster Ltd., Kent, UK) were inserted through the edge of the capsule to retain its circular shape. Incubation was at 35° C. in a 5% CO2 atmosphere. Ongoing observations were performed with a Nikon phase-contrast microscope and images captured with a digital camera (Coolpix 950; Nikon. Tokyo, Japan) with associated imaging software (a person, personal communication). In some cases preparations were used for radioactive isotope studies.
as §1

tumour cells = experiment: tumour cell growth inhibition / killing; type: cell-based, human; details: read-out: IC50 (concentration of drug required to produce 50% growth inhibition) for tumour cells
Description: It has therefore been proposed that the subcellular localisation of the sigma receptor may contribute to the degree of susceptibility to sigma ligands (Spruce et al Cancer Research 2004). Without wishing to be bound by theory, the present inventors postulated that differential subcellular localisation of the sigma receptor, or other factors, could lead to sigma ligands being differentially potent in lens epithelial cells compared to tumour cells. […] Specifically, the IC50 (the concentration of drug required to produce 50% growth inhibition) of BD-1047 for tumour cells is in the region 50-100 micromolar; in contrast, the IC50 for human lens epithelial cells (in the capsular bag system) is in the region of 10 micromolar.
as §2

[4] = tested on: human lens epithelial cells; experiment: efflux of radioactive isotopes (3H-dopamine, 14C-tyrosine) in capsular bags; type: cell-based; details: capsular bag system, 3 μM rimcazole
Description: Efflux of (A) ^3H-dopamine and (B) ^14C-tyrosine from human lens epithelial cells in control (SF) and rimcazole supplemented media. Data are presented as mean±6 separate experiments.
Capsular bags were maintained in Eagle's minimum essential medium (EMEM) or EMEM supplemented with 3 μM. Rimcazole dihydrochloride (rimcazole) (TOCRIS) for 7 days (when the pigment granules could be observed in cells). 1 μCl/ml of ^3H-dopamine and 2 μCi/ml of ^14C-tyrosine (Amersham Biosciences) were then added to each dish for an additional 24 hours. At the end point, 10 μl of medium were collected from each dish, and transferred into scintillation vials. The bags were washed briefly twice with EMEM and fresh control or experimental media added for one hour. The medium was then collected into scintillation vials and the procedure repeated eights times. The experiment was then terminated by adding 1 ml of ice-cold 5% Trichloroacetic acid (TCA) (Fisher Chemicals) to each dish. After 30 minutes, the TCA was removed from each well to determine the cytosolic dopamine and tyrosine levels. 1 ml of 250 mM NaOH was then added to each dish to determine the radio-isotope levels in the TCA precipitable fraction. 10 mls of scintillation fluid (Hisafe Supermix) were then added to each scintillation vial and the samples assayed using a Wallac scintillation counter with appropriate background controls. […]

[5] = tested on: bovine lens epithelial cells; experiment: in vitro cell death assay (MTS cell viability) on tissue culture plastic; type: cell-based; details: 10 μM, up to 72 hours, FIG. 1
Description: (§3) Human adult male dermal fibroblasts, adult mammary epithelial cells, adult dermal microvascular endothelial cells and bovine lens epithelial cells at low passage were exposed to 10 μM concentrations of the sigma-1 antagonists rimcazole and IPAG for up to 72 hours. Change in cell viability over time was measured in the MTS assay; data points represent mean values (±SD), obtained from wells in triplicate, expressed relative to baseline (pre-treatment) values. Graphs depict representative experiments, performed at least three times.

[6] = tested on: lens epithelial cells in the presence of the bovine capsule; details: versus cells cultured in isolation; cited from earlier work
[7] = tested on: adult dermal microvascular endothelial cells; experiment: MTS cell viability, rescue by sigma-1 agonists; type: cell-based, human; details: co-administration of equimolar concentrations (10 μM) of sigma-1 agonist
Description: as §3

CN(C)CCN(C)CCc1ccc(Cl)c(Cl)c1 [BD1047]
pigmentation of primary human lens epithelial cells [1]: become pigmented | growth inhibition of FHL124 cells (patch size, protein content) ([2]; lower dose (10 μm), serum-free, FIG. 6): less effective | growth of human lens cells on the posterior capsule [3]: less inhibitory | growth of lens cells on the capsule ([3]; 10 μm, FIG. 4): potently inhibits growth | IC50 ([3]; in the capsular bag system): ~10 µM | IC50 (tumour cells): 50 to 100 µM

C[C@@H]1CN(CCCn2c3ccccc3c3ccccc32)C[C@H](C)N1 [Rimcazole]
pigmentation of primary human lens epithelial cells [1]: become pigmented | growth of FHL124 cells ([2]; 3 and 10 μm, serum free medium, FIG. 5): significantly inhibited | growth of FHL124 cells ([2]; 5% FCS, higher dose (10 μm), FIG. 5): growth inhibition is less marked | growth of human lens cells on the posterior capsule [3]: inhibits growth | cell killing in human lens epithelial cells ([3]; contained in the human capsular bag system): potently induces cell killing | dopamine efflux ([4]; FIG. 10A): unaffected | efflux of 14C-tyrosine from lens cells ([4]; FIG. 10B): no effect | susceptibility of primary bovine lens cells in tissue culture compared with tumour cells [5]: almost as susceptible | ability to induce apoptosis in lens epithelial cells [6]: substantially less able to induce apoptosis

NC(=NC1C2CC3CC(C2)CC1C3)Nc1ccc(I)cc1 (centres unmarked) [IPAG]
susceptibility of primary bovine lens cells in tissue culture compared with tumour cells [5]: almost as susceptible

C=CCN1CCC2(C)c3cc(O)ccc3CC1C2C.Cl (single isomer, unassigned; (+)) [(+)-SKF10047, (+)-SKF 10047 hydrochloride]
rescue of sigma antagonist (rimcazole)-mediated growth inhibition of FHL124 cells ([2]; both concentrations, serum free medium, FIG. 5): partially rescues | restoration of growth to BD1047 inhibited FHL124 cells ([2]; higher concentrations of BD1047 (10 and 30 μm), FIG. 6): partially restores growth | protection of microvascular endothelial cells from rimcazole and IPAG [7]: protected

CC(C)=CCN1CCC2(C)c3cc(O)ccc3CC1C2C (single isomer, unassigned; (+)) [(+)-pentazocine]
protection of microvascular endothelial cells from rimcazole and IPAG [7]: protected
